Values of other authors, collected in article PMC10090446, “Population pharmacokinetic analysis and dosing optimization of polymyxin B in critically ill patients” (Frontiers in Pharmacology, 2023).
Read-outs that look alike come from different tables or passages of the source. Positions of bridges follow the written chain, without caps; N, C: chain ends. Non-standard residues stand in square brackets, D forms with d. Residues, ends and D or L forms follow the SMILES beside them. *: point of attachment. X1 = CC[C@H](C)CCCCC(=O)*; Dab = NCC[C@H](N)C(=O)O

Experiments:
[1] = used to convert fAUC/MIC target; ref Sandri et al., 2013; cited from earlier work
Protocol: Combined with population PK/PD feature parameters of antibiotics medicines, the PTA of PK/PD target for a dosing regimen at a predetermined minimum inhibitory concentration (MIC) was performed by Monte Carlo simulation. According to the 2019 International Consensus Guidelines ([Tsuji et al., 2019]), the target of fAUC/MIC for polymyxins was around 20, and the unbound fraction was determined to be 0.42 ([Sandri et al., 2013]). Thus AUC/MIC ≥ 50 was set as the efficacy target, as well as the MIC range was set at 0.25–4 mg L^-1 ([Satlin et al., 2020]). Additionally, considering the nephrotoxicity ...

[2] = cited from earlier work
Text: TABLE 5 PPK studies of polymyxin B. | column: Estimation of population parameters || Since small samples were employed in this experiment, the non-parametric population modeling algorithm has theoretical advantages over parametric methods in detecting population PK/PD subgroups and outliers ([Goutelle et al., 2022]), so the non-parametric population modeling approach was chosen for modeling in this study. The values of CL (1.24 L h^-1) and V (16.64 L) (Table 3) in this study were in line with the ranges from previous reports, including the CL range (1.2–4.2 L h^-1) ([Sandri et al., 2013]) (Table 3) and the V range (5.63–34.4 L) (Table 5). However, the CL value was lower than t ...

[3] = critically ill patients; ref Ye et al., 2022; cited from earlier work
Text: Over the last decade, more pathogenic bacteria have developed resistance, making many first-line antibiotics ineffective against infections ([Mohapatra et al., 2021]). Polymyxins were used extensively as salvage therapeutic agents for combating multidrug-resistant gram-negative bacteria (MDR-GNB) infections ([Falagas et al., 2021]). […] These specific physiolog ...

[4] = Acutely ill patients, n = 52, two-compartment model, ref Miglis et al. (2018)
[5] = Critically ill patients with CVVH, n = 53, two-compartment model, ref Wang et al. (2022)
[6] = Critically ill patients with/without CRRT, n = 53, two-compartment model, ref Luo et al. (2022)
[7] = Critically ill patients, n = 24, two-compartment model, ref Sandri et al. (2013)
[8] = Health Volunteers, n = 20, three-compartment model, ref Liu et al. (2021)
[9] = Patients with MDR-GNB infections, n = 46, two-compartment model, ref Wang et al. (2020)
[10] = Patients with/without ECMO, n = 13, non-compartment model, ref Surovoy et al. (2022)

In the case of `CC[C@H](C)CCCCC(=O)N[C@@H](CCN)C(=O)N[C@H](C(=O)N[C@@H](CCN)C(=O)N[C@H]1CCNC(=O)[C@H]([C@@H](C)O)NC(=O)[C@H](CCN)NC(=O)[C@H](CCN)NC(=O)[C@H](CC(C)C)NC(=O)[C@@H](Cc2ccccc2)NC(=O)[C@H](CCN)NC1=O)[C@@H](C)O` [polymyxin B] (X1-[Dab]T[Dab][Dab][Dab][dF]L[Dab][Dab]T; lactam 4-C), the unbound fraction [1] is listed as 0.42, the CL ([2]; Acutely ill patients, n = 52, 156 samples, two-compartment model, ref Miglis et al. (2018)) is listed as 2.63 L/h and the Q [2, 4] is listed as 2.32 L/h. For the same molecule, the V1 [2, 4] was 33.8 L, the V2 [2, 4] was 78.2 L and the CL ([2]; Clinical Samples, n = 43, 134 samples, one-compartment model, ref Kubin et al. (2018)) was 2.37 L/h. The V ([2]; Clinical Samples, n = 43, one-compartment model, ref Kubin et al. (2018)) was 34.4 L, the CLCRRT ([2]; Critically ill patients undergoing CRRT, n = 53 with/without CRRT, two-compartment model, ref Luo et al. (2022)) was 1.95 L/h and the CL ([2]; Critically ill patients with CVVH, n = 53, 275 samples, two-compartment model, ref Wang et al. (2022)) was 1.95 L/h. The CLCVVH [2, 5] was 4.52 L/h, the Q [2, 5] was 2.28 L/h and the V [2, 5] was 15.0 L. The V2 [2, 5] was 6.54 L, the CLwithoutCRRT ([2]; Critically ill patients with/without CRRT, n = 53, 189 samples, two-compartment model, ref Luo et al. (2022)) was 1.5 L/h and the Q [2, 6] was 1.34 L/h. The V [2, 6] was 11.7 L, the V2 [2, 6] was 17.9 L and the CL ([2]; Critically ill patients, n = 24, 100 samples, two-compartment model, ref Sandri et al. (2013)) was 1.66 L/h. For the same molecule, the Q [2, 7] was 8.76 L/h, the V1 [2, 7] was 5.63 L and the V2 [2, 7] was 19.8 L. The CL [2, 8] was 1.62 L/h, the Q2 [2, 8] was 8.4 L/h and the Q3 [2, 8] was 0.384 L/h. The V [2, 8] was 4.26 L, the V2 [2, 8] was 3.66 L and the V3 [2, 8] was 2.7 L. For the same molecule, the CL ([2]; Individuals with severe infections, n = 35, 139 samples, one-compartment model, ref Manchandani et al. (2018)) was 2.5 L/h, the V ([2]; Individuals with severe infections, n = 35, one-compartment model, ref Manchandani et al. (2018)) was 34.3 L and the CL ([2]; Patients with MDR-GNB infections, n = 46, 331 samples, two-compartment model, ref Wang et al. (2020)) was 1.786 L/h. The Q [2, 9] was 13.518 L/h, the V1 [2, 9] was 6.218 L and the V2 [2, 9] was 11.922 L. For the same molecule, the CL ([2]; Patients with TDM, n = 32, 112 samples, one-compartment model, ref Yu et al. (2021)) was 1.59 L/h, the V ([2]; Patients with TDM, n = 32, one-compartment model, ref Yu et al. (2021)) was 20.5 L and the CL [2, 10] was 1.16 L/h. The V [2, 10] was 19.73 L, the CL ([2]; Renal transplant patients, n = 50, 151 samples, one-compartment model, ref Li et al. (2021)) was 1.18 L/h and the V ([2]; Renal transplant patients, n = 50, one-compartment model, ref Li et al. (2021)) was 12.09 L. For the same molecule, the “rate of reaching the standard polymyxin B exposure AUC at a typical clinical dose” value [3] was “approximately 54.3%”.
